Test results reported in ChEMBL document CHEMBL1201862, “PubChem BioAssay data set” (2004).
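Grown in 96-well plates, cells were treated for 48 hours with each compound at five concentrations. Insufficient inhibition: endpoint recorded as highest concentration tested. GI50: concentration for 50% inhibition of growth.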 Calls of active or inactive are those of the source. Cut-off read from the data, not from the text of the source: active = GI50 up to about 1.1 µM and inactive = higher.

Experiments:
Experiment in all cases: NCI tumour cell line growth inhibition, 48 h
A549 = system: A549
CCRF-CEM = system: CCRF-CEM
HOP-62 = system: HOP-62
HT-29 = system: HT-29
K562 = system: K562
NCI-H226 = system: NCI-H226
NCI-H460 = system: NCI-H460
OVCAR-5 = system: OVCAR-5
OVCAR-8 = system: OVCAR-8
SF-539 = system: SF-539
SK-MEL-28 = system: SK-MEL-28
SK-MEL-5 = system: SK-MEL-5
SK-OV-3 = system: SK-OV-3
SW-620 = system: SW-620
UO-31 = system: UO-31
HCT-116 = system: HCT-116
U-251 = system: U-251
Hs-578T = system: Hs-578T
MDA-MB-435 = system: MDA-MB-435
T47D = system: T47D

Measured: GI50

CC1=C(C(=O)Nc2ccccc2)C(c2ccc3c(c2)OCO3)C(C(=O)Nc2ccccc2)=C(C)N1
inactive: A549 49.5 µM | CCRF-CEM 15.2 µM | HOP-62 41.8 µM | HT-29 37.2 µM | K562 17.5 µM | NCI-H226 39.6 µM | NCI-H460 43.9 µM | OVCAR-5 > 10 µM | OVCAR-8 37.9 µM | SF-539 26.5 µM | SK-MEL-28 31.6 µM | SK-MEL-5 33.7 µM | SK-OV-3 47.3 µM | SW-620 3.5 µM | UO-31 29.5 µM

CC1=C2[C@@H](c3ccccc3)C3C=CC2(C=C3C(F)(F)F)N(C(=O)NC2CCCCC2)C1=O (stereo partly drawn)
inactive: A549 67.5 µM | CCRF-CEM 25.1 µM | HCT-116 32.4 µM | HOP-62 68.1 µM | HT-29 72.9 µM | K562 36.6 µM | NCI-H460 > 100 µM | OVCAR-5 > 100 µM | OVCAR-8 > 100 µM | SF-539 52.4 µM | SK-MEL-28 > 100 µM | SK-MEL-5 43.5 µM | SK-OV-3 > 100 µM | SW-620 > 100 µM | U-251 > 100 µM | UO-31 51.5 µM

Nc1c(/N=N/c2ccc(-c3ccc(/N=N/c4c(O)ccc5cc(S(=O)(=O)O)cc(S(=O)(=O)O)c45)cc3)cc2)c(S(=O)(=O)O)cc2cc(S(=O)(=O)O)c(/N=N/c3ccccc3)c(O)c12
inactive: A549 > 70.8 µM | CCRF-CEM > 100 µM | HCT-116 > 100 µM | HOP-62 > 100 µM | HT-29 > 100 µM | K562 > 100 µM | NCI-H226 19.6 µM | NCI-H460 > 100 µM | OVCAR-5 > 100 µM | OVCAR-8 > 100 µM | SF-539 > 100 µM | SK-MEL-28 > 100 µM | SK-MEL-5 > 100 µM | SK-OV-3 > 100 µM | SW-620 > 100 µM | U-251 > 100 µM | UO-31 6.84 µM

COCCOc1nc(-c2ccccc2)nc2ccccc12
inactive: A549 37.3 µM | HCT-116 46.1 µM | HOP-62 22.1 µM | HT-29 29.6 µM | Hs-578T 28.8 µM | K562 35.5 µM | MDA-MB-435 52.4 µM | NCI-H460 19.3 µM | OVCAR-5 > 100 µM | OVCAR-8 42 µM | SF-539 48.8 µM | SK-MEL-28 53.5 µM | SK-MEL-5 25.8 µM | SK-OV-3 46.7 µM | SW-620 34 µM | T47D 27.7 µM | U-251 45.8 µM | UO-31 38.6 µM

CCCCCCCCCC/C=C/C=O
inactive: A549 > 100 µM | CCRF-CEM > 100 µM | HCT-116 > 100 µM | HT-29 > 100 µM | K562 > 100 µM | NCI-H460 > 100 µM | OVCAR-5 > 100 µM | OVCAR-8 > 100 µM | SF-539 > 100 µM | SK-MEL-28 > 100 µM | SK-MEL-5 > 100 µM | SK-OV-3 > 100 µM | SW-620 > 100 µM | U-251 > 100 µM | UO-31 > 100 µM

OCc1ccccc1C1CSCSC1
inactive: A549 > 100 µM | CCRF-CEM > 100 µM | HCT-116 > 100 µM | HT-29 > 100 µM | K562 > 100 µM | NCI-H226 > 100 µM | NCI-H460 > 100 µM | OVCAR-8 > 100 µM | SF-539 > 100 µM | SK-MEL-28 > 100 µM | SK-MEL-5 > 100 µM | SK-OV-3 > 100 µM | SW-620 > 100 µM | U-251 > 100 µM | UO-31 > 100 µM

COc1ccc(Nc2nc3ccccc3nc2-c2cccs2)cc1
inactive: A549 80.4 µM | CCRF-CEM > 100 µM | HCT-116 > 100 µM | HOP-62 69.7 µM | K562 > 100 µM | NCI-H226 > 100 µM | NCI-H460 79.4 µM | OVCAR-5 > 100 µM | OVCAR-8 > 100 µM | SF-539 > 100 µM | SK-MEL-28 > 100 µM | SK-MEL-5 65.3 µM | SK-OV-3 40.5 µM | SW-620 > 100 µM | U-251 > 100 µM | UO-31 > 100 µM

COc1cc2oc(-c3ccc(O)cc3)cc(=O)c2c(O)c1C1OC(CO)C(O)C(O)C1O (stereo not drawn)
inactive: A549 > 100 µM | CCRF-CEM > 100 µM | HCT-116 > 100 µM | HOP-62 > 100 µM | HT-29 > 100 µM | K562 > 100 µM | NCI-H226 > 100 µM | NCI-H460 > 100 µM | OVCAR-5 > 100 µM | OVCAR-8 > 100 µM | SF-539 > 100 µM | SK-MEL-28 > 100 µM | SK-MEL-5 > 100 µM | SK-OV-3 > 100 µM | SW-620 11.5 µM | U-251 > 100 µM | UO-31 > 100 µM

CC1=C(C(=O)Nc2cccc(Cl)c2)C(c2ccc([N+](=O)[O-])cc2)C(C(=O)Nc2cccc(Cl)c2)=C(C)N1
inactive: A549 28.9 µM | CCRF-CEM 10.9 µM | HCT-116 13.1 µM | HOP-62 29 µM | HT-29 16.6 µM | K562 24.8 µM | NCI-H226 26.9 µM | NCI-H460 20.1 µM | OVCAR-5 48 µM | OVCAR-8 30.7 µM | SF-539 39.8 µM | SK-MEL-28 25.3 µM | SK-MEL-5 17.5 µM | SK-OV-3 11.9 µM | SW-620 > 10 µM | U-251 15.8 µM | UO-31 17.7 µM

COc1ccc2cc(/C=N\NC(=O)Nc3cccc4ccccc34)ccc2c1
inactive: A549 > 100 µM | CCRF-CEM 21.3 µM | HCT-116 16.6 µM | HOP-62 15.3 µM | HT-29 39.2 µM | Hs-578T 30.5 µM | K562 14.6 µM | MDA-MB-435 50.6 µM | NCI-H226 28.2 µM | NCI-H460 17.9 µM | OVCAR-5 69.5 µM | OVCAR-8 24 µM | SF-539 30.5 µM | SK-MEL-28 33 µM | SK-MEL-5 37.3 µM | SW-620 74 µM | U-251 16.4 µM | UO-31 87.3 µM

C1CCC(OCc2nnn3c2CCC3)OC1 (stereo not drawn)
inactive: A549 > 100 µM | CCRF-CEM > 100 µM | HCT-116 > 100 µM | HOP-62 > 100 µM | HT-29 > 100 µM | K562 > 100 µM | NCI-H460 > 100 µM | OVCAR-5 > 100 µM | OVCAR-8 > 100 µM | SF-539 > 100 µM | SK-MEL-28 > 100 µM | SK-MEL-5 > 100 µM | SK-OV-3 > 100 µM | SW-620 > 100 µM | U-251 > 100 µM | UO-31 > 100 µM

C=CC[N+](CCO)(CCO)CCCCCCCCCCCCCCCCCC
inactive: A549 11.3 µM | CCRF-CEM 1.23 µM | HCT-116 3.4 µM | HOP-62 6.38 µM | HT-29 3.08 µM | K562 2.96 µM | NCI-H226 7.78 µM | NCI-H460 4.05 µM | OVCAR-5 14 µM | OVCAR-8 9.25 µM | SF-539 3.54 µM | SK-MEL-28 12.9 µM | SK-MEL-5 8.13 µM | SK-OV-3 10.9 µM | SW-620 6.24 µM | U-251 1.97 µM | UO-31 9.62 µM

CC(C)CCNC(=O)c1ccc(CNC(=O)/C=C/c2ccc(OCc3ccccc3)cc2)cc1
inactive: A549 > 100 µM | CCRF-CEM > 100 µM | HCT-116 > 100 µM | HOP-62 > 100 µM | HT-29 > 100 µM | K562 > 100 µM | MDA-MB-435 > 100 µM | NCI-H226 39.9 µM | NCI-H460 > 100 µM | OVCAR-5 > 100 µM | OVCAR-8 > 100 µM | SK-MEL-28 > 100 µM | SK-MEL-5 > 100 µM | SK-OV-3 > 100 µM | SW-620 > 100 µM | T47D > 100 µM | U-251 > 100 µM | UO-31 > 100 µM

CCOC(=O)C1(Cc2ccc3ccccc3c2)CCCCC(=O)N1 (stereo not drawn)
inactive: A549 39.1 µM | CCRF-CEM 23.3 µM | HOP-62 44.6 µM | HT-29 30.8 µM | K562 4.55 µM | NCI-H460 25.7 µM | OVCAR-8 55.5 µM | SK-MEL-28 41 µM | SK-OV-3 76 µM | SW-620 27.5 µM | U-251 41.1 µM | UO-31 23.9 µM

Cn1cc(C(=O)c2ccccc2)ccc1=O
inactive: A549 > 100 µM | CCRF-CEM > 100 µM | HCT-116 > 100 µM | HOP-62 > 100 µM | HT-29 > 100 µM | K562 > 100 µM | NCI-H226 > 100 µM | NCI-H460 > 100 µM | OVCAR-5 > 100 µM | OVCAR-8 > 100 µM | SF-539 > 100 µM | SK-MEL-28 > 100 µM | SK-MEL-5 > 100 µM | SK-OV-3 > 100 µM | SW-620 > 100 µM | U-251 > 100 µM | UO-31 > 100 µM

O=C(/C(=C/c1ccc(O)cc1)c1ccccc1)c1ccccc1
inactive: A549 18 µM | CCRF-CEM 20 µM | HCT-116 16.7 µM | HOP-62 19.3 µM | HT-29 18.1 µM | K562 17.8 µM | NCI-H226 16.7 µM | NCI-H460 18.7 µM | OVCAR-5 17 µM | OVCAR-8 27 µM | SF-539 16.6 µM | SK-MEL-28 17.9 µM | SK-MEL-5 15 µM | SK-OV-3 20.8 µM | SW-620 18 µM | U-251 16.2 µM | UO-31 15.4 µM

C/C=C/c1cc2c(c(=O)o1)C(=O)[C@@H](O)[C@H](C)O2
inactive: A549 19.7 µM | CCRF-CEM 5.46 µM | HCT-116 7.8 µM | HOP-62 26.5 µM | HT-29 14.4 µM | K562 8.59 µM | NCI-H226 16.9 µM | NCI-H460 21.7 µM | OVCAR-5 17.2 µM | OVCAR-8 16.7 µM | SF-539 18.6 µM | SK-MEL-28 15 µM | SK-MEL-5 15 µM | SK-OV-3 37.6 µM | SW-620 11 µM | U-251 17.6 µM | UO-31 19.7 µM
